Assay results as given in PubChem BioAssay (NCI).
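Tested at 5 concentrations; 48 h exposure; 96-well plates; endpoints linearly interpolated, else capped at highest concentration. TGI denotes the concentration required for complete inhibition of growth.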

Experiments:
Assay in all cases: growth of human tumour cells (NCI), 48 h
HT29 colon = system: HT29 colon
OVCAR-4 ovarian = system: OVCAR-4 ovarian
T-47D breast = system: T-47D breast
UO-31 renal = system: UO-31 renal
CCRF-CEM leukemia = system: CCRF-CEM leukemia
KM12 colon = system: KM12 colon
M14 melanoma = system: M14 melanoma
A549 NSCLC = system: A549 NSCLC
UACC-257 melanoma = system: UACC-257 melanoma
SNB-75 CNS = system: SNB-75 CNS
NCI-H522 lung = system: NCI-H522 lung
CAKI-1 renal = system: CAKI-1 renal
SK-MEL-2 melanoma = system: SK-MEL-2 melanoma
MOLT-4 leukemia = system: MOLT-4 leukemia
HCT-15 colon = system: HCT-15 colon
SN12C renal = system: SN12C renal
NCI/ADR-RES ovarian = system: NCI/ADR-RES ovarian
COLO 205 colon = system: COLO 205 colon
SF-295 CNS = system: SF-295 CNS
786-0 renal = system: 786-0 renal
SF-268 CNS = system: SF-268 CNS
BT-549 breast = system: BT-549 breast
SR leukemia = system: SR leukemia
ACHN renal = system: ACHN renal
K-562 leukemia = system: K-562 leukemia
MDA-MB-231 breast = system: MDA-MB-231 breast
HL-60(TB) leukemia = system: HL-60(TB) leukemia
HOP-62 NSCLC = system: HOP-62 NSCLC
MDA-MB-435 = system: MDA-MB-435
SK-MEL-28 melanoma = system: SK-MEL-28 melanoma
HOP-92 NSCLC = system: HOP-92 NSCLC
HCT-116 colon = system: HCT-116 colon
OVCAR-5 ovarian = system: OVCAR-5 ovarian
NCI-H226 lung = system: NCI-H226 lung
NCI-H23 lung = system: NCI-H23 lung
SK-OV-3 ovarian = system: SK-OV-3 ovarian
SK-MEL-5 melanoma = system: SK-MEL-5 melanoma
LOX IMVI melanoma = system: LOX IMVI melanoma
NCI-H460 lung = system: NCI-H460 lung
OVCAR-3 ovarian = system: OVCAR-3 ovarian
U251 CNS = system: U251 CNS
IGROV1 ovarian = system: IGROV1 ovarian
UACC-62 melanoma = system: UACC-62 melanoma
MDA-N = system: MDA-N
SF-539 CNS = system: SF-539 CNS
HCC-2998 colon = system: HCC-2998 colon
A498 renal = system: A498 renal
SW-620 colon = system: SW-620 colon
RPMI-8226 leukemia = system: RPMI-8226 leukemia
RXF 393 renal = system: RXF 393 renal
OVCAR-8 ovarian = system: OVCAR-8 ovarian
SNB-19 CNS = system: SNB-19 CNS
PC-3 prostate = system: PC-3 prostate
EKVX NSCLC = system: EKVX NSCLC
DU-145 prostate = system: DU-145 prostate
HS 578T breast = system: HS 578T breast
MALME-3M melanoma = system: MALME-3M melanoma
TK-10 renal = system: TK-10 renal
MCF7 breast = system: MCF7 breast

CCOC(=O)C(=Cc1ccccc1Cl)C(=O)OCC
TGI (HT29 colon): 3.3 µM | TGI (OVCAR-4 ovarian): 5.05 µM | TGI (T-47D breast): 8.86 µM | TGI (UO-31 renal): 3.2 µM | TGI (CCRF-CEM leukemia): 4.69 µM | TGI (KM12 colon): 2.67 µM | TGI (M14 melanoma): 2.95 µM | TGI (A549 NSCLC): 5.21 µM | TGI (UACC-257 melanoma): 3.21 µM | TGI (SNB-75 CNS): 0.617 µM | TGI (NCI-H522 lung): 4.02 µM | TGI (CAKI-1 renal): 4.27 µM | TGI (SK-MEL-2 melanoma): 4.59 µM | TGI (MOLT-4 leukemia): 6.27 µM | TGI (HCT-15 colon): 4.83 µM | TGI (SN12C renal): 3.91 µM | TGI (NCI/ADR-RES ovarian): 5.97 µM | TGI (COLO 205 colon): 3.02 µM | TGI (SF-295 CNS): 6.31 µM | TGI (786-0 renal): 2.82 µM | TGI (SF-268 CNS): 6.05 µM | TGI (BT-549 breast): 4.59 µM | TGI (SR leukemia): > 10 µM | TGI (ACHN renal): 7.62 µM | TGI (K-562 leukemia): 5.28 µM | TGI (MDA-MB-231 breast): 3.39 µM | TGI (HL-60(TB) leukemia): 3.83 µM | TGI (HOP-62 NSCLC): 4.05 µM | TGI (MDA-MB-435): 3.29 µM | TGI (SK-MEL-28 melanoma): 3.53 µM | TGI (HOP-92 NSCLC): 4.96 µM | TGI (HCT-116 colon): 1.88 µM | TGI (OVCAR-5 ovarian): 4.13 µM | TGI (NCI-H226 lung): 5.56 µM | TGI (NCI-H23 lung): 3.83 µM | TGI (SK-OV-3 ovarian): > 10 µM | TGI (SK-MEL-5 melanoma): 3.6 µM | TGI (LOX IMVI melanoma): 4.5 µM | TGI (NCI-H460 lung): 7.22 µM | TGI (OVCAR-3 ovarian): 2.76 µM | TGI (U251 CNS): 3.07 µM | TGI (IGROV1 ovarian): 7.31 µM | TGI (UACC-62 melanoma): 3.67 µM | TGI (MDA-N): 4.93 µM | TGI (SF-539 CNS): 4.13 µM | TGI (HCC-2998 colon): > 10 µM | TGI (A498 renal): 5 µM | TGI (SW-620 colon): 2.6 µM | TGI (RPMI-8226 leukemia): 4.87 µM | TGI (RXF 393 renal): 3.78 µM | TGI (OVCAR-8 ovarian): 2.12 µM | TGI (SNB-19 CNS): 3.53 µM | TGI (PC-3 prostate): 4.3 µM | TGI (EKVX NSCLC): 7.39 µM | TGI (DU-145 prostate): 3.96 µM | TGI (HS 578T breast): > 10 µM | TGI (MALME-3M melanoma): 3.58 µM

NC(=S)Nc1[nH]c(=S)nc2[nH]ccc12
TGI (HT29 colon): > 100 µM | TGI (T-47D breast): > 100 µM | TGI (UO-31 renal): > 100 µM | TGI (CCRF-CEM leukemia): > 100 µM | TGI (KM12 colon): > 100 µM | TGI (M14 melanoma): > 100 µM | TGI (A549 NSCLC): > 100 µM | TGI (UACC-257 melanoma): > 100 µM | TGI (SNB-75 CNS): 62.9 µM | TGI (CAKI-1 renal): > 100 µM | TGI (SK-MEL-2 melanoma): > 100 µM | TGI (MOLT-4 leukemia): > 100 µM | TGI (HCT-15 colon): > 100 µM | TGI (SN12C renal): > 100 µM | TGI (NCI/ADR-RES ovarian): > 100 µM | TGI (COLO 205 colon): > 100 µM | TGI (SF-295 CNS): > 100 µM | TGI (786-0 renal): > 100 µM | TGI (SF-268 CNS): > 100 µM | TGI (BT-549 breast): > 100 µM | TGI (TK-10 renal): > 100 µM | TGI (SR leukemia): > 100 µM | TGI (ACHN renal): > 100 µM | TGI (K-562 leukemia): > 100 µM | TGI (MDA-MB-231 breast): > 100 µM | TGI (HL-60(TB) leukemia): 53.2 µM | TGI (HOP-62 NSCLC): > 100 µM | TGI (MDA-MB-435): > 100 µM | TGI (SK-MEL-28 melanoma): > 100 µM | TGI (HOP-92 NSCLC): > 100 µM | TGI (HCT-116 colon): > 100 µM | TGI (OVCAR-5 ovarian): > 100 µM | TGI (NCI-H226 lung): > 100 µM | TGI (NCI-H23 lung): > 100 µM | TGI (SK-OV-3 ovarian): > 100 µM | TGI (SK-MEL-5 melanoma): > 100 µM | TGI (MCF7 breast): > 100 µM | TGI (LOX IMVI melanoma): > 100 µM | TGI (NCI-H460 lung): > 100 µM | TGI (OVCAR-3 ovarian): 94.3 µM | TGI (U251 CNS): > 100 µM | TGI (IGROV1 ovarian): > 100 µM | TGI (UACC-62 melanoma): > 100 µM | TGI (MDA-N): > 100 µM | TGI (SF-539 CNS): > 100 µM | TGI (A498 renal): > 100 µM | TGI (SW-620 colon): > 100 µM | TGI (RPMI-8226 leukemia): > 100 µM | TGI (OVCAR-8 ovarian): > 100 µM | TGI (SNB-19 CNS): > 100 µM | TGI (PC-3 prostate): > 100 µM | TGI (EKVX NSCLC): > 100 µM | TGI (DU-145 prostate): > 100 µM | TGI (HS 578T breast): > 100 µM
